Measurements reported in patent US5049551A, “5-fluorouracil, 2'-deoxy-5-fluorouridine and 1-carbomoyl-5-fluorouracil compounds” (UBE Industries, Ltd., priority 1989, dated 1991).

How the values were obtained:
[1] = test system: KB cell; test: Cell proliferation inhibition, KB cells, Pharmacological test example 1; assay type: cell-based; conditions: Homo sapiens, 2×10^4 planted, compound added after 12 hours, 5 days culture, read-out: IC50 (50% cell proliferation inhibiting concentration)
[2] = Acute toxicity, oral, Pharmacological test example 3; conditions: in vivo, 7 week-old BDF2 female mouse, 21 days after administration, read-out: ID50 (LD50 from mortality)
Method: The compounds of the present invention obtained in Examples 4 and 7 were orally administered to 7 week-old BDF2 female mouse (10 mice per group). After 21 days from the administration, mortality of the mice was judged and LD50 value was evaluated from mortality according to the Richfield-Wilcokson method.

[3] = background; cited from earlier work
[4] = test system: KB cell; test: Cell proliferation inhibition, KB cells, Pharmacological test example 2; assay type: cell-based; conditions: Homo sapiens, 5×10^3 planted, compound added after 24 hours, 5 days culture, read-out: IC50 (50% cell proliferation inhibiting concentration)
Method: To a microwell having 9 holes were planted KB cell with 5×10^3, respectively, and after 24 hours, the compound of the present invention obtained in Example 7 and 5-fluorouracil were added. After cultivating for 5 days, the number of cells were measured and from a cell proliferation inhibiting ratio-concentration curve, 50% cell proliferation inhibiting concentration (IC50 value) at which the inhibiting ratio becomes 50% was evaluated.

Row | Compound | IC50 [1] [nM] | LD50 at 504 h [2] [mg/kg] | antitumor effects compared with 5-fluorouracil [3] | other results
1 | CCCC(CCC)C(=O)NCC(=O)OC[C@H]1O[C@@H](n2cc(F)c(=O)[nH]c2=O)[C@H](O)[C@@H]1OC(=O)CNC(=O)C(CCC)CCC [Example 4, 3',5'-bis-O-[N-(2n-propyl-n-pentanoyl)-glycyl]-5-fluorouridine] | 1800 | ≥ 3000 |  | 
2 | C[C@H]1O[C@@H](n2cc(F)c(=O)[nH]c2=O)[C@H](O)[C@@H]1O [Doxifluridine, 5'-deoxy-5-fluorouridine] |  |  | inferior to that of 5-fluorouracil | 
3 | CCCC(CCC)C(=O)NCC(=O)OC[C@H]1O[C@@H](n2cc(F)c(=O)[nH]c2=O)[C@H](OC(=O)CNC(=O)C(CCC)CCC)[C@@H]1OC(=O)CNC(=O)C(CCC)CCC [Example 1, 2',3',5'-tris-O-[N-(2-n-propyl-n-pentanoyl)-glycyl]-5-fluorouridine] | 2000 | ≥ 5000 |  | 
4 | CCCCCCNC(=O)n1cc(F)c(=O)[nH]c1=O [Carmofur, 1-n-hexylcarbamoyl-5-fluorouracil] |  |  | inferior to that of 5-fluorouracil | 
5 | O=c1[nH]c(=O)n(C2CCCO2)cc1F (centres unmarked) [Tegafur, 1-(2-tetrahydrofulyl)-5-fluorouracil] |  |  | inferior to that of 5-fluorouracil | 
6 | O=c1[nH]cc(F)c(=O)[nH]1 [5-Fluorouracil, 5-fluorouracil] | 17700 | 928 |  | antitumor activity [3]: insufficient; toxicity [3]: potent toxicity; IC50 [4]: 750 nM
7 | CCCC(CCC)C(=O)NCC(=O)NCCCCCCNC(=O)n1cc(F)c(=O)[nH]c1=O [Example 7, 1-[6-[N-(2-n-propyl-n-pentanoyl)glycyl]amino-n-hexylcarbamoyl]-5-fluorouracil] |  | ≥ 1000 |  | IC50 [4]: 660 nM
